Data on twelve compounds can be found in patent US9993462B2, “Hydantoin derivative-containing pharmaceutical composition” (Chugai Seiyaku Kabushiki Kaisha, priority 2014, dated 2018).

pEC50: −log10 of the molar value.

In data set [1] the target is T1, human PTH1R (Homo sapiens, UniProt Q03431).
T1 construct: expressed in transfected cells; host or cells: HKRK-B7 (LLC-PK1 porcine kidney cells stably expressing human PTH1R)
T1 sequence (Q03431 27-593): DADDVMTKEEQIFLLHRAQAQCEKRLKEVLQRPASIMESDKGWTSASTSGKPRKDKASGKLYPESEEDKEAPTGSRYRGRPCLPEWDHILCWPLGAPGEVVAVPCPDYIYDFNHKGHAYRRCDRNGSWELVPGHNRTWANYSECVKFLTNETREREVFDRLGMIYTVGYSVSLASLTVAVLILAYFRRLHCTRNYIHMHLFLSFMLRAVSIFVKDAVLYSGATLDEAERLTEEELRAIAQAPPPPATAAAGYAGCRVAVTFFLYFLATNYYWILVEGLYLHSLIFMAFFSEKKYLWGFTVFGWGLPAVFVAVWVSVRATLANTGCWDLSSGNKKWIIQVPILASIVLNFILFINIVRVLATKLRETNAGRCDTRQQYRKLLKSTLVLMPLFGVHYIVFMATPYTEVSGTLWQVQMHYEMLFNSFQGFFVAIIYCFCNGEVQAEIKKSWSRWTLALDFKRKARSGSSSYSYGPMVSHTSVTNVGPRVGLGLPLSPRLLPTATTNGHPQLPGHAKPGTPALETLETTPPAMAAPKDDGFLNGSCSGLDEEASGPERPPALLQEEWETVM
The data set can be described thus: In vitro cAMP signal activity via the human PTH1R (HKRK-B7 cells). In kind it is cell-based. Particulars: human PTH(1-34) at 100 nM = 100%; for EC20: concentration at 20% cAMP signaling activity. As for the experimental part: Human PTH(1-34) and calcitonin were purchased from Peptide Institute, Inc. (Osaka, Japan), dissolved in 10 mM acetic acid to 1 mM and stored in a −80° C. freezer.
Cells were cultured in Dulbecco's modified Eagle's medium (DMEM) supplemented with 10% fetal bovine serum (Hyclone), 100 units/ml penicillin G and 100 μg/ml streptomycin sulfate (Invitrogen Corp) at 37° C. in a humidified atmosphere containing 5% CO2.
cAMP signal transduction analysis utilized LLC-PK1 cells not expressing the PTH1R, and HKRK-B7 cells, that is, LLC-PK1 cells overexpressing the human PTH1R at 9.5×10^5 receptors/cell (Takasu et al., J. Bone. Miner. Res. 14:11-20, 1999).
HKRK-B7 or LLC-PK1 cells were seeded into a 96-well plate at 1×10^5 cells/well and incubated overnight. On the following day, 50 μl of cAMP assay buffer (DMEM, 2 mM IBMX, 0.2 mg/ml bovine serum albumin, 35 mM Hepes-NaOH, pH 7.4) containing human PTH(1-34) or each compound was added and the plate was placed in a 37° C. incubator. The cells were incubated for 20 minutes. After removing the medium, the cells were washed with 100 μl of cAMP assay buffer once. The plate was placed on dry ice powder to freeze the cells and then removed from the dry ice. The cells were lysed with 40 μl of 50 mM HCl and frozen again on dry ice. The amount of intracellular cAMP produced was measured using a commercially available cAMP EIA kit (Biotrack cAMP EIA system, GE health care).
Analyses were performed using a variable gradient S-shaped dose-response curve equation.

Data set [2] deals with TPTX rat. As to the kind of experiment: Calcemic action in the TPTX rat model. Type of data set: in vivo. Particulars: TPTX rats, 30 mg/kg oral; for change of serum Ca concentration from the Pre-value (in words): up to 24 hours after administration. As for the experimental part: Four-week old female Crl:CD(SD) rats were obtained from Charles River Japan (Atsugi Breeding Center), and were acclimated to standard laboratory conditions of 20-26° C. and 35-75% humidity for one week. The rats were given tap water and were fed ad libitum with standard rodent chow (CE-2) (CLEA Japan, Inc.) containing 1.1% calcium, 1.0% phosphoric acid, and 250 IU/100 g of vitamin D3.
TPTX was performed on five-week old rats. Some of the individuals were subjected to sham operation (Sham). Individuals whose serum Ca concentration was less than 8 mg/dL on four days after the operation were selected for use as TPTX rats. On five days after the operation, the rats were assigned to eight TPTX groups and one Sham group (n=5, each group) based on their body weight and serum Ca concentration measured on four days after the operation. The solvent alone was orally administered to the Sham group and the TPTX-Vehicle group at a volume of 10 mL/kg. Each test article was orally administered individually to each TPTX test article group by dissolving it in a solvent at a dose of 30 mg/10 mL/kg. The solvent composition was 10% dimethylsulfoxide (Wako Pure Chemical Industries, Ltd.), 10% Cremophor EL (Sigma-Aldrich Japan LLC), 20% hydroxypropyl-β-cyclodextrin (Nihon Shokuhin Kako Co., Ltd.), glycine (Wako Pure Chemical Industries, Ltd.); and the pH was adjusted to 10. Immediately before administration of each sample, Pre-blood collection was performed, and blood collection was carried out at 2, 6, 10, and 24 hours after administration to measure the serum Ca concentration. Each blood collection was carried out from the jugular vein under isoflurane inhalation anesthesia.
Serum Ca measurement: Serum obtained by centrifugation from the collected blood was measured by using an automatic analyzer TBA-120FR (Toshiba Medical Systems Corporation).
For statistical analysis of the animal studies, data are shown as mean±standard error (SE). Statistical analysis were performed by unpaired test of the SAS Preclinical Package (Ver. 5.00.010720, SAS Institute Japan, Tokyo, Japan).

Data set [3] has as its system rat hepatocyte. As to the kind of experiment: Metabolic stability using rat hepatocyte. In kind it is in vitro ADME. As for the experimental part: Liver cells were prepared from the liver of rats (SD, female) by a collagenase perfusion method. A compound of the Reference Examples or a Comparative Example was added, and this was incubated at 37° C. for a specified amount of time, followed by addition of a reaction-stopping solution. The concentration of the parent compound at each reaction time was measured using LC/MS/MS, and inherent clearance (μL/10^6 cells/min) was calculated from the slope of the reaction time versus residual rate.
• Cell concentration: 1×10^6 cells/mL • Compound concentration: 1 μM • Medium: Williams' medium E • Reaction time: 0, 15, 30, 60, 120, and 240 minutes • Reaction-stopping solution: acetonitrile/2-propanol (4/6, v/v)

Turning to `Cc1cc(N2C(=O)CNC2=O)cc(C)c1CCS(=O)(=O)N1CCC2(CC1)N=C(c1cccc(OC(F)(F)F)c1)NC2=O` [Comparative Example 2, reference compound], the EC20 in data set [1] was found to be 3100 nM. In data set [2], the “achievement of the therapeutic target range of serum Ca concentration of 7.6 to 8.8 mg/dL” value (from here on “achievement”) was “could not be achieved” and the “change of serum Ca concentration from the Pre-value (in words)” value (“change of serum Ca concentration” below) was “smaller positive changes from the Pre-value”.
On to `Cc1cc(N2C(=O)NC(=O)C2(C)C)cc(C)c1CCS(=O)(=O)N1CCC2(CC1)N=C(c1cccc(Br)c1)NC2=O` [Compound 2, 1-(4-(2-((2-(3-bromophenyl)-4-oxo-1,3,8-triazaspiro[4.5]deca-1-en-8-yl)sulfonyl)ethyl)-3,5-dimethylphenyl)-5,5-dimethylimidazolidine-2,4-dione], for which the “rat hepatocyte metabolic stability compared to Comparative Examples 1, 2, 3, 5, and 6 (in words)” value in data set [3] is reported as “increased”. Also, the EC20 in data set [1] stood at 2400 nM.
Turning to `Cc1cc(N2C(=O)NC(=O)C2(C)C)cc(C)c1CCS(=O)(=O)N1CCC2(CC1)N=C(c1ccc(F)c(C(F)(F)F)c1)NC2=O` [Compound 3, 1-(4-(2-((2-(4-fluoro-3-(trifluoromethyl)phenyl)-4-oxo-1,3,8-triazaspiro[4.5]deca-1-en-8-yl)sulfonyl)ethyl)-3,5-dimethylphenyl)-5,5-dimethylimidazolidine-2,4-dione], in data set [1], the EC20 was determined as 1500 nM. Besides, in data set [1] (concentration at 50% cAMP signaling activity), the pEC50 is 5.14.
Compound `Cc1cc(N2C(=O)CNC2=O)cc(C)c1CCS(=O)(=O)N1CCC2(CC1)N=C(c1ccc(F)c(C(F)(F)F)c1)NC2=O` [Comparative Example 3, reference compound] came in with an EC20 in data set [1] of 2000 nM.
The same measure, in the same setting: with `CC[C@H]1CC[C@H](C2=NC3(CCN(S(=O)(=O)CCc4ccc(N5C(=O)NC(=O)C5(C)C)cc4C)CC3)C(=O)N2)CC1` [Comparative Example 6, reference compound] the figure was 3600 nM.
With `Cc1cc(N2C(=O)NC(=O)C2(C)C)cc(C)c1CCS(=O)(=O)N1CCC2(CC1)N=C(c1cccc(C(F)(F)F)c1)NC2=O` [Compound 6, 1-(3,5-dimethyl-4-(2-((4-oxo-2-(3-(trifluoromethyl)phenyl)-1,3,8-triazaspiro[4.5]deca-1-en-8-yl)sulfonyl)ethyl)phenyl)-5,5-dimethylimidazolidine-2,4-dione], in data set [3], the “rat hepatocyte metabolic stability compared to Comparative Examples 1, 2, 3, 5, and 6 (in words)” value is recorded as “increased”. The compound also showed an EC20 in data set [1] of 2000 nM. In data set [2], the “achievement” value is “achieved the therapeutic target range” and the “change of serum Ca concentration” value is “large positive changes from the Pre-value”.
`Cc1cc(N2C(=O)NC(=O)C2(C)C)cc(C)c1CCS(=O)(=O)N1CCC2(CC1)N=C(c1ccc(F)c(OC(F)(F)F)c1)NC2=O` [Compound 1, 1-(4-(2-((2-(4-fluoro-3-(trifluoromethoxy)phenyl)-4-oxo-1,3,8-triazaspiro[4.5]deca-1-en-8-yl)sulfonyl)ethyl)-3,5-dimethylphenyl)-5,5-dimethylimidazolidine-2,4-dione] returned an EC20 in data set [1] of 1300 nM. Besides, in data set [2], the “achievement” value was “could not be achieved” and the “change of serum Ca concentration” value is reported as “smaller positive changes from the Pre-value”.
`Cc1cc(N2C(=O)NC(=O)C2(C)C)cc(C)c1CCS(=O)(=O)N1CCC2(CC1)N=C(c1ccc(OC(F)(F)F)c(F)c1)NC2=O` [Compound 4, 1-(4-(2-((2-(3-fluoro-4-(trifluoromethoxy)phenyl)-4-oxo-1,3,8-triazaspiro[4.5]deca-1-en-8-yl)sulfonyl)ethyl)-3,5-dimethylphenyl)-5,5-dimethylimidazolidine-2,4-dione]: the “rat hepatocyte metabolic stability compared to Comparative Examples 1, 2, 3, 5, and 6 (in words)” value in data set [3] is listed as “increased”. The compound also showed a concentration for an effect of 20% (EC20) in data set [1] of 1600 nM.
As to `Cc1cc(N2C(=O)NC(=O)C23CCN(C)CC3)cc(C)c1CCS(=O)(=O)N1CCC2(CC1)N=C(c1ccc(OC(F)(F)F)cc1)NC2=O` [Compound 9, 1-(3,5-dimethyl-4-(2-((4-oxo-2-(4-(trifluoromethoxy)phenyl)-1,3,8-triazaspiro[4.5]deca-1-en-8-yl)sulfonyl)ethyl)phenyl)-8-methyl-1,3,8-triazaspiro[4.5]decane-2,4-dione], the “rat hepatocyte metabolic stability compared to Comparative Examples 1, 2, 3, 5, and 6 (in words)” value in data set [3] was “increased”. The compound further registered a 20% effect concentration (EC20) in data set [1] of 2600 nM.
For `Cc1cc(N2C(=O)NC(=O)C2(C)C)cc(C)c1CCS(=O)(=O)N1CCC2(CC1)N=C(c1ccc3c(c1)OC(F)(F)O3)NC2=O` [Compound 5, 1-(4-(2-((2-(2,2-difluorobenzo[d][1,3]dioxol-5-yl)-4-oxo-1,3,8-triazaspiro[4.5]deca-1-en-8-yl)sulfonyl)ethyl)-3,5-dimethylphenyl)-5,5-dimethylimidazolidine-2,4-dione], in that order: “increased” and 1700 nM.
On to `CC[C@H]1CC[C@H](C2=NC3(CCN(S(=O)(=O)CCc4ccc(N5C(=O)NC(=O)C5C)cc4C)CC3)C(=O)N2)CC1` (stereo partly drawn) [Comparative Example 5, reference compound], for which the EC20 in data set [1] was 3100 nM.
Turning to `CCC1CCC(C2=NC3(CCN(S(=O)(=O)CCc4ccc(N5CC(=O)NC5=O)cc4C)CC3)C(=O)N2)CC1` (stereo not drawn) [Comparative Example 4, reference compound], the EC20 in data set [1] is more than 505000 nM.

The term EC20 denotes the point of the concentration-response curve where the effect stands at 20%. The term pEC50 denotes −log10 of the EC50, conventionally taken in molar units. Higher therefore signals a low EC50.
